Five compounds from patent publication US20240207329A1, “METHODS OF TREATING ADENOCARCINOMA WITH HUMAN MICROBIOTA DERIVED N-ACYL AMIDES” (ICAHN SCHOOL OF MEDICINE AT MOUNT SINAI, priority 2021, published 2024) can be followed below.

The subject of one test is Tumor organoids. The test can be described thus: Treatment of mouse tumor organoids with N-acyl amides, end-point viability by CellTiter-Glo. Format: cell-based, mice. The note with it: for IC50: mouse tumor organoids, viability 3 days post-drug addition, CellTiter-Glo, triplicate; for liver cancer growth and/or survival: tumor organoid dose-response curves, FIG. 7. The method, then: Tumor organoids were prepared from the animal model described in Example 1 (i.e. tissue from control animals was isolated at 24 weeks and tumor organoids prepared therefrom). Tumor organoids were generated according to protocols known in the art (Broutier, L., Andersson-Rolf, A., Hindley, C J., Boj, S F., Clevers, H., et al., Culture and establishment of self-renewing human and mouse adult liver and pancreas 3D organoids and their genetic manipulation. Nat Protoc. 2016. 11(9): 1724-43 and Broutier, L. Mastrogiovanni, G., Verstegen, M M., Francies, H E., Gavarro, L M., et al., Human primary liver cancer-derived organoid cultures for disease modeling and drug screening. Nat Med. 2017 23(12): 1424-1435). Liver biopsies were digested in sterile PBS containing 0.125 mg/mL collagenase IV, 0.125 mg/mL dispase II, and 0.1 mg/mL DNaseI. Digestions were performed at 37° C. for at least 4 hours. Tissue dissociate was filtered through a 70 μm strainer and washed with basal media (Advanced DMEM/F12, 1% L-glutamine, 1% penstrep, 1 mM HEPES). Cells were counted, washed, and resuspended at 50,000 cells/50 μL matrigel. 50 μL matrigel droplets were plated in 24-well plates and allowed to polymerize for 15 minutes at 37° C. Tumor dissociate was cultured in tumor media (basal media, 1:50 B27, 1 mM N-acetylcysteine, 10 mM nicotinamide, 10 nM recombinant human [Leu^15]-gastrin I, 50 ng/mL recombinant murine EGF, 100 ng/mL recombinant human FGF10, and 50 ng/mL recombinant human HGF) until organoids formed. To passage, organoids were removed from matrigel in basal media, spun down at 300 g for 5 minutes, mechanically broken via passage through a 21 g needle, washed in basal media, and re-plated in matrigel.
96-wells plates were coated with a 50:50 solution of matrigel:basal media, which was allowed to polymerize for 15 minutes at 37° C. Tumor organoids were mechanically broken as described above, counted, and seeded at 1,000 cells/well in tumor media. Following overnight incubation, serial drug dilutions were added to the tumor organoids. […] End-point viability was analyzed 3-days post-drug addition using CellTiter-Glo. Each treatment was performed in triplicate.
(In general: In ATP-based viability assays light output follows the ATP content of the culture.)

Test [1] concerns Human hepatocellular cancer (HCC) organoids. Kind of test: Treatment of human HCC and cholangiocarcinoma organoids, anti-tumor effects. Format: cell-based. The note with it: triplicate. As for the experimental part:
Human hepatocellular cancer (HCC) organoids were prepared from patients with non alcoholic steatohpepatitis (NASH), hepatitis B virus (HBV) and hepatitis C virus (HCV). The HCC organoids were generated according to protocols known in the art (Broutier, L., Andersson-Rolf, A., Hindley, C J., Boj, S F., Clevers, H., et al., Culture and establishment of self-renewing human and mouse adult liver and pancreas 3D organoids and their genetic manipulation. Nat Protoc. 2016. 11(9): 1724-43 and Broutier, L. Mastrogiovanni, G., Verstegen, M M., Francies, H E., Gavarro, L M., et al., Human primary liver cancer-derived organoid cultures for disease modeling and drug screening. Nat Med. 2017 23(12): 1424-1435). Organoids were also prepared from a single patient with cholangiocarcinoma (ICC). N-oleoyl serinol and N-oleoyl glycine were assayed for anti-tumor effects. Each treatment was performed in triplicate. […] N-oleoyl serinol was active specifically against HCCC organoids from patients with NASH.

SMILES strings stand for the structures. A value given as a limit tells only on which side of the number the result lay.

As a reminder, the IC50 is the concentration that gives 50% inhibition. A higher IC50 goes with weaker potency. Take `CCCCCCCC/C=C\CCCCCCCC(=O)NCCO` [N-oleoyl ethanolamide, reference compound]: in the test on Tumor organoids (72 h), half-maximal inhibition (IC50) required 126 nM. In the test with Tumor organoids, the “liver cancer growth and/or survival” value is “inhibit or reduce”. `CCCCCCCC/C=C\CCCCCCCC(=O)NCC(=O)O` [N-oleoyl glycine] returned an IC50 in the test with Tumor organoids (72 h) above 100000 nM. In test [1] (all organoid cell lines (HCC from NASH, HBV, HCV patients; cholangiocarcinoma)), the anti-tumor effects result was “inactive”. Turning to `CCCCCCCC/C=C\CCCCCCCC(=O)NC(CO)CO` [N-oleoyl serinol], the 50% inhibitory concentration (IC50) in the test on Tumor organoids (72 h) amounted to 33.3 nM. The “liver cancer growth and/or survival” value with Tumor organoids is “inhibit or reduce”. In test [1] (HCC organoids from patients with NASH), the anti-tumor effects result was “active”.

`CCCCCCCCCCCCCCCC(=O)NCC(=O)O` [N-palmitoyl glycine] returned an IC50 with Tumor organoids above 100000 nM. In the test with Tumor organoids (72 h), `CCCCCCCCCCCCCCCC(=O)NC(CO)CO` [palmitoyl serinol] came in with a concentration for half-maximal inhibition (IC50) above 100000 nM.
